Values of other authors in patent US20220378710A1, “Therapeutic Gas Microfoam for Skin Recovery” (Truly Oxygen, Inc., priority 2018, published 2022).

Conditions: topical co-administration of lipids, mammals

Row | SMILES | increase in absorption and/or bioavailability
1 | C=C(C)[C@@H]1CCC(C)=C[C@H]1c1c(O)cc(CCCCC)cc1O [CBD, cannabidiol] | ~3 fold
2 | CCCCCc1cc(O)c2c(c1)OC(C)(C)[C@@H]1CCC(C)=C[C@@H]21 [THC, Δ^9-tetrahydrocannabinol] | more than 2.5 fold
